Test results taken from patent US8629283B2, “Compounds that modulate negative-sense, single-stranded RNA virus replication and uses thereof” (Icahn School of Medicine at Mount Sinai, priority 2008, dated 2014).
Entries after “also recorded” stand apart in the source; their conditions may differ.

System: influenza virus
Format: cell-based

| SMILES | susceptibility of passaged versus unpassaged virus (resistance) |
| --- | --- |
| CC(=O)c1c(O)c(C)c(O)c(Cc2c(O)c3c(c(C(=O)/C=C/c4ccccc4)c2O)OC(C)(C)C=C3)c1O [rottlerin] | No difference; also recorded: emergence of resistant viruses was not observed |
| N#Cc1cc2c(OCC(O)CN3CCN(C(c4ccccc4)c4ccccc4)CC3)cccc2[nH]1 (centres unmarked) [SDZ-201106] | No difference; also recorded: emergence of resistant viruses was not observed |
